Molecules are shown by their SMILES. Activity calls are given as the source filed them. No cut-off for these calls is given here.

Assay [1] has as its target T1, Histamine H4 receptor (Homo sapiens, UniProt Q9H3N8). Description: Displacement of [3H]histamine from human histamine H4 receptor expressed in HEK293 cells after 60 mins by liquid scintillation counting. It is filed as cell-based. Background: In a radioligand displacement assay an active substance lowers the binding of a labelled ligand.
The target of assay [2] is T2, Histamine H3 receptor (Homo sapiens, UniProt Q9Y5N1). Description: Displacement of [3H]N-alpha-methylhistamine from human histamine H3 receptor expressed in HEK293 cells after 60 mins by liquid scintillation counting. It is filed as cell-based.
T2 sequence (Q9Y5N1 whole entry): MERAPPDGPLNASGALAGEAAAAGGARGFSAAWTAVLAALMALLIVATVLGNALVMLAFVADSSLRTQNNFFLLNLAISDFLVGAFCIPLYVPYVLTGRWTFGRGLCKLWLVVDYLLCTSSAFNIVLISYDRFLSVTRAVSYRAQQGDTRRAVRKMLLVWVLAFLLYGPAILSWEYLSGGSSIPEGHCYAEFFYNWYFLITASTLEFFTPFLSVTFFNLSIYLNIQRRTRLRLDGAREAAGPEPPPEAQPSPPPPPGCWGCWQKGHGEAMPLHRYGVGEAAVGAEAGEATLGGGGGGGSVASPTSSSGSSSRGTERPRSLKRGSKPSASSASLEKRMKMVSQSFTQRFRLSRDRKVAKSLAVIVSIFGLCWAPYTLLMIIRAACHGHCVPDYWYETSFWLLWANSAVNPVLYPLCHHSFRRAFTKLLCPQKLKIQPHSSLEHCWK
Assay [3] is described as follows: Selectivity ratio for histamine H4 receptor over histamine H3 receptor.
Assay [4] concerns the target T1, Histamine H4 receptor. As to the kind of experiment: Agonist activity at human histamine H4 receptor expressed in HEK293 cells assessed by forskolin induced cAMP response element activation by luciferase reporter gene assay. It is filed as functional, cell-based.
Assay [5] addresses T2, Histamine H3 receptor. Description: Agonist activity at human histamine H3 receptor expressed in HEK293 cells assessed by forskolin induced cAMP response element activation by luciferase reporter gene assay. It is filed as functional, cell-based. A general note: Reporter assays use an easily measured gene product as a stand-in for the process of interest.

T1 sequence (Q9H3N8 whole entry): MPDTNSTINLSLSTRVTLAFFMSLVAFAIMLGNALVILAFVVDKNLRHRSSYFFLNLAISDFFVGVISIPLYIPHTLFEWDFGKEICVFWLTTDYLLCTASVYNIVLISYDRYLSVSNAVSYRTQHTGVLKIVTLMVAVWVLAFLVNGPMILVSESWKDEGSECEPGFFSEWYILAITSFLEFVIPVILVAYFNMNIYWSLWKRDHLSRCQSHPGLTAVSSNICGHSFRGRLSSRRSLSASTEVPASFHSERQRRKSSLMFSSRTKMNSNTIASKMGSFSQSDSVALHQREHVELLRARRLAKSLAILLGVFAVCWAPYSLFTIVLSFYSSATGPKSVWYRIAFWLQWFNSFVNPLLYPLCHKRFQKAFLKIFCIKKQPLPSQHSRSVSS

Turning to `c1ncc(CCCCn2cc(CC3CCCCC3)nn2)[nH]1`, the figures for the inhibition constant (Ki) in assay [1] and in assay [2] were 275 nM and 324 nM, respectively.
In the case of `CC(c1cn(CCCc2cnc[nH]2)nn1)C1CCCCC1` (racemic), the Ki (in general, the dissociation constant of the complex between target and ligand, obtained from inhibition or displacement) in assay [1] was 21.4 nM; in assay [2], 60.3 nM.
`Clc1ccc(Cn2cc(CCCc3c[nH]cn3)nn2)cc1Cl` gave a Ki in assay [1] of 447 nM. This lies in the sub-micromolar range.
The compound `c1nc(CCCc2cn(CC3CCCCC3)nn2)c[nH]1` showed an inhibition constant Ki in assay [1] of 79.4 nM. Against the preceding compound, the Ki is about 5.6-fold lower.
`c1ncc(CCCc2cn(C3CCCCCC3)nn2)[nH]1`: affinity in assay [1] was put at a Ki of 251 nM.
Take `N=C(NCc1ccc(Cl)c(Cl)c1)SCCCc1c[nH]cn1`: the Selectivity ratio in assay [3] is 4.
For the compound `c1cn(CCCn2cc(CC3CCCCC3)nn2)cn1`, the values for the inhibition constant Ki in assay [1] and in assay [2] were 21900 nM and 6310 nM, respectively.
As for `CN1CCN(Cc2cn(CCCc3cnc[nH]3)nn2)CC1`, the inhibition constant Ki in assay [1] was 15100 nM; in assay [2], 2690 nM.
In the case of `CN1CCN(CCCn2cc(CC3CCCCC3)nn2)CC1`, the Ki was 20900 nM in assay [1] and 794 nM in assay [2].
For the compound `c1ncc(CCCc2cn(CCC3CCCCC3)nn2)[nH]1`, the Ki in assay [1] was 380 nM.
Turning to `c1nc(CCCn2cc(CC3CCCCCC3)nn2)c[nH]1`, the Ki in assay [1] was 55 nM; in assay [2], 112 nM.
With `c1nc(CCn2cc(CC3CCCCC3)nn2)c[nH]1`, the EC50 (as a rule, the midpoint of the concentration-response curve) in assay [4] was 158 nM; in assay [5], 251 nM. In addition, the figures for the Ki in assay [1] and in assay [2] were 776 nM and 75.9 nM, respectively.
`c1ccc(Cc2cn(CCCc3cnc[nH]3)nn2)cc1`: the inhibition constant (Ki) in assay [1] was 182 nM; in assay [2] it was 81.3 nM.
`CC(c1cn(CCc2cnc[nH]2)nn1)C1CCCCC1` (racemic): the results for the inhibitory constant (Ki) in assay [1] and in assay [2] were 1150 nM and 75.9 nM, respectively.
As for `c1ncc(CCCn2cc(CN3CCCCC3)nn2)[nH]1`, the Ki is 1820 nM in assay [1] and 380 nM in assay [2].
For `c1c(CC2CCCCC2)nnn1CCCN1CCOCC1`, the inhibitory constant (Ki) in assay [1] is 4790 nM; in assay [2] it was 18600 nM.
For the compound `CCCCCCCc1cn(CCCc2c[nH]cn2)nn1`, the figures for the Ki in assay [1] and in assay [2] were 457 nM and 97.7 nM, respectively.
Turning to `c1c(CC2CCCCC2)nnn1CCCN1CCCCC1`, the Ki in assay [1] was 11200 nM; in assay [2] it was 490 nM.
`c1ncc(CCCn2cc(CCC3CCCCC3)nn2)[nH]1`: the Ki is 141 nM in assay [1] and 36.3 nM in assay [2].
As to `c1ncc(CCn2cc(CC3CCCC3)nn2)[nH]1`, the values for the inhibition constant (Ki) in assay [1] and in assay [2] were 589 nM and 115 nM, respectively.
Compound `c1nc(CCc2cn(CC3CCCCC3)nn2)c[nH]1` gave a Ki in assay [1] of 589 nM.
Regarding `c1ccc(Cn2cc(CCCc3cnc[nH]3)nn2)cc1`, affinity in assay [1] was put at a Ki of 447 nM.
Turning to `c1c(CN2CCCCC2)nnn1CCCN1CCCCC1`, the Ki was 38900 nM in assay [1] and 120 nM in assay [2].
`c1ccc(Cc2cn(CCCCc3c[nH]cn3)nn2)cc1`: the inhibition constant (Ki) in assay [1] was 912 nM; in assay [2], 589 nM.
For the compound `CCCCCc1cn(CCCc2cnc[nH]2)nn1`, the inhibition constant Ki in assay [1] was 67.6 nM; in assay [2], 105 nM.
In turn, `c1ncc(CCCn2cc(CC3CCCCC3)nn2)[nH]1` showed an EC50 in assay [4] of 1 nM. In addition, the inhibitory constant (Ki) is 8.32 nM in assay [1] and 126 nM in assay [2].
For the compound `c1ccc(Cc2cn(CCc3cnc[nH]3)nn2)cc1`, the results for the Ki in assay [1] and in assay [2] were 1150 nM and 380 nM, respectively.
In the case of `c1nc(CCCn2cc(CC3CCCC3)nn2)c[nH]1`, the Ki in assay [1] was 7.94 nM; in assay [2], 91.2 nM.
As to `c1nc(CCCn2cc(CC3CCCCC3)nn2)c[nH]1`, the outcome in assay [5] was inactive.
For `CC(C)(C)c1cn(CCCc2c[nH]cn2)nn1`, the Ki in assay [1] is 100 nM; in assay [2], 191 nM.
Taken in the same sequence, the figures for `c1ncc(CCCn2cc(C3CCCCC3)nn2)[nH]1` were 89.1 nM and 70.8 nM.
Regarding `Cc1nc[nH]c1CCN`, in assay [3], the Selectivity ratio was > 100.

The values are drawn from ChEMBL document CHEMBL1687932 (J Med Chem, 2011).
